The subject of one data set is Plasmodium yoelii. Put plainly: Antimalarial activity as minimal concentration for parasite elimination at day 23 against Plasmodium yoelii 17X intravenously inoculated CD1 mice (Mus musculus) dosed 1 hrs post infection then daily for 4 days.
Data set [1] deals with Plasmodium falciparum. Put plainly: Antimalarial activity against chloroquine-resistant Plasmodium falciparum TM6. It is filed as functional, organism-based.
Data set [2] has as its system Plasmodium falciparum. Kind of data set: Antimalarial activity against chloroquine-sensitive Plasmodium falciparum 3D7. The format is functional, organism-based.
The test system of data set [3] is Mus musculus. Put plainly: Toxicity in po dosed mouse assessed as induction of hematological toxicity at drug dose above no observed adverse effects level. It is filed as organism-based. The conditions noted are these: in vivo.
Data set [4] in a line: Clearance in iv dosed rat. The format is ADME, organism-based. The conditions noted are these: in vivo.
The test system of data set [5] is Plasmodium falciparum. Put plainly: Antimalarial activity against chloroquine-resistant Plasmodium falciparum J164. The format is functional, organism-based.
The test system of data set [6] is Rattus norvegicus. Kind of data set: Metabolic stability in Wistar rat assessed as (2S,3S,4S,5R,6S)-6-{2-[5-(7-Chloro-quinolin-4-ylamino)-2-fluoro-benzylamino]-2-methyl-propionyloxy}-3,4,5-trihydroxy-tetrahydro-pyran-2-carboxylic acid level at 54 umol/kg, iv administered as [3H]labeled drug after 5 hrs. It is filed as ADME, organism-based. Particulars: in vivo; call rule not given here.

A short description of data set [7]: (§1) Partition coefficient, log P of the compound. The format is physicochemical. The conditions noted are these: octanol/water.
Data set [8] can be described thus: as §1. It is filed as physicochemical. Particulars: octanol/water. This is another data set of the same source.
Data set [9] has as its system Mus musculus. Kind of data set: Toxicity in po dosed mouse assessed as induction of hepatotoxicity at drug dose above no observed adverse effects level. It is filed as organism-based. Particulars: in vivo.
Another data set deals with Liver. Put plainly: Biodistribution in cannulated Wistar rat liver assessed as [3H]labeled drug level at 54 umol/kg, iv after 5 hrs. It is filed as ADME, organism-based. Particulars: in vivo.
The test system of data set [10] is Plasmodium falciparum. Kind of data set: Antimalarial activity against chloroquine-resistant Plasmodium falciparum TM4. The format is functional, organism-based.
Data set [11] can be described thus: Toxicity in po dosed mouse assessed as drug level causing no observed adverse effects administered as single dose. It is filed as organism-based. Particulars: in vivo, read-out: Activity.
Another data set deals with Plasmodium berghei. Kind of data set: Antimalarial activity as reduced parasitaemia against Plasmodium berghei ANKA infected CD1 mice (Mus musculus) perorally dosed daily over 4 days. It is filed as functional. The conditions noted are these: po, 96 h.
Data set [12] has as its system Rattus norvegicus. Put plainly: Biodistribution in Wistar rat assessed as remaining [3H]labeled drug level at 54 umol/kg, iv after 168 hrs. The conditions noted are these: in vivo. The format is ADME, organism-based.
For another data set, the target named is Cytochrome P450 3A4 (Homo sapiens, UniProt P08684). Kind of data set: Inhibition of human CYP3A4 using PPR substrate. The format is ADME.
A short description of data set [13]: Oral bioavailability in mouse. The format is ADME, organism-based. The conditions noted are these: in vivo.

The record followed here is ChEMBL document CHEMBL1153384, “Synthesis, antimalarial activity, and preclinical pharmacology of a novel series of 4'-fluoro and 4'-chloro analogues of amodiaquine. Identification of a suitable "back-up" compound for N-tert-butyl isoquine” (J Med Chem, 2009).

SMILES strings stand for the structures.

Cytochrome P450 3A4, sequence (P08684 whole entry): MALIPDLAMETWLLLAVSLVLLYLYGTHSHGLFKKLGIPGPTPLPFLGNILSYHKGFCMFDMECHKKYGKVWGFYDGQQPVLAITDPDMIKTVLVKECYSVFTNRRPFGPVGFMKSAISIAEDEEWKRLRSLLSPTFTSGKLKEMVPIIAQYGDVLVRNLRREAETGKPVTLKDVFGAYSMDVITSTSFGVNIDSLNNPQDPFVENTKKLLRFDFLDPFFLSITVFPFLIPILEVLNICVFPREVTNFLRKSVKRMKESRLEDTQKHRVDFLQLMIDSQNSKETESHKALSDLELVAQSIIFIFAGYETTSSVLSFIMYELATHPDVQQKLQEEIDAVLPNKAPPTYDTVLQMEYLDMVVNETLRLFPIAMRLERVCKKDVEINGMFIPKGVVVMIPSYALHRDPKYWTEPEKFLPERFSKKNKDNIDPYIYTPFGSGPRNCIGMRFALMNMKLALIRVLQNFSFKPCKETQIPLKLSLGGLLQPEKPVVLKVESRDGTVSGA

What is called IC50 is the point on the concentration scale where inhibition reaches its midpoint. Read a high IC50 as weaker potency in that assay. Broadly, the clearance is the rate of elimination divided by the concentration. A high value points to efficient removal. As a reminder, the logP is the decadic logarithm of the partition coefficient of the neutral form, usually between octanol and water. Read a high logP as higher lipophilicity. Broadly, the ED50 is the midpoint of the dose-response relation. Broadly, the bioavailability is the share of a dose that reaches the circulation, judged against a reference dose that is usually intravenous. On to `CC(C)(C)NCc1cc(Nc2ccnc3cc(Cl)ccc23)ccc1F`, for which the Activity in the data set on Plasmodium yoelii is more than 40 mg/kg; with Mus musculus [3] it was “Toxic”; with Rattus norvegicus [6], 9.95%; in the data set with Mus musculus [9] it was “Toxic”; with Rattus norvegicus [12], 1.22%. The concentration for half-maximal inhibition (IC50) is 0.0219 µM in the data set on Plasmodium falciparum [1]; 0.0121 µM in the data set on Plasmodium falciparum [2]; 0.0292 µM with Plasmodium falciparum [5]; 0.0173 µM in the data set with Plasmodium falciparum [10]; “Active” on Cytochrome P450 3A4. Further, the clearance in [4] is 35 mL/min/kg. Further, the logP in [7] was found to be 4.74; in [8] it was 5.15. Also, the Drug uptake in the data set on Liver was 17.49 %ID. Also, the NOAEL in data set [11] was 300 mg/kg. The compound further displayed an ED50 with Plasmodium berghei of 5.3 mg/kg. This compound displayed an ED90 with Plasmodium berghei of 12.4 mg/kg. The compound also returned a bioavailability in data set [13] of 37%.
